Series [1] in a line: Aqueous solubility at pH 7.4. Particulars: aqueous medium at pH 7.4, aqueous buffer. In kind it is physicochemical. The protocol: The aqueous solubility of exemplary dipeptide analogs as disclosed herein was tested at pH 7.4.
Series [2] deals with P-gp (human PGP). Nature of the series: Membrane permeability in MDCKII/PGP cells. In kind it is in vitro ADME. The note with it: dog, MDCK-MDR1; MDCKII cells transfected with human PGP; read-out: Permeability MDCKII/PGP AI (asymmetry index). The method, then:
(§1) Exemplary peptide analogs as disclosed herein were tested for membrane permeability in MDCKII cells transfected with human PGP, for evaluating intestinal absorption. The data obtained in presented in Table 5 below, where A-B is the apical-basolateral flux and AI is the asymmetry index.

Series [3] has as its system human P-gp (PGP). The series can be described thus: Membrane permeability in MDCKII/PGP cells. In kind it is in vitro ADME. Particulars: dog, MDCK-MDR1; MDCKII cells transfected with human PGP; read-out: Permeability MDCKII/PGP A-B (apical-basolateral flux). The method, then:
as §1

The nature of series [4]: Metabolic stability in human liver microsomes. In kind it is in vitro ADME. The note with it: % of compound remaining after 30 minutes. The method, then: (§2) The metabolic stability of exemplary peptide analogs as disclosed herein was tested in Human and Rat liver microsomes (HLM and RLM, respectively). The obtained data is presented in Table 5 below, as % of compound remaining after 30 minutes). All of the peptides were found sufficiently stable.
For orientation: Microsomes from liver hold many membrane-bound enzymes, among them those of drug oxidation.

Series [5] can be described thus: Metabolic stability in rat liver microsomes. The note with it: % of compound remaining after 30 minutes. In kind it is in vitro ADME. The protocol:
as §2

For series [6], the target named is T1, Aβ monomers (Homo sapiens, UniProt P05067).
T1 construct: Aβ monomers were covalently coupled to one flow cell of CM7 sensor chips
The series can be described thus: SPR binding assay (BIACORE X100). The note with it: immobilized Aβ monomers, 25° C., steady-state; mean ± SD; read-out: SPR binding IC50 [nM] +/− SD (repeats). The protocol: Surface Plasmon Resonance (SPR) studies were performed using a BIACORE X100 biosensor instrument (GE Lifesciences, Uppsala, Sweden), equipped with two flow cells on a sensor chip. Aβ monomers were covalently coupled to one flow cell of CM7 sensor chips (GE Lifesciences, Uppsala, Sweden) via primary amines using the Amine Coupling Kit (GE Lifesciences, Uppsala, Sweden). As a control, ethanolamine was immobilized on the reference channel. […] One RU represents about 1 pg/mm^2 of the analytes on the surface matrix of the sensor chip. […] The stock solutions were diluted 1:1000 in HBS-EP buffer which contains 0.01M HEPES, pH7.4, 0.15M NaCl, 3 mM EDTA, and 0.005% of surfactant P20. HBS-EP+0.1% (v/v) DMSO was used as assay running buffer. The test solutions were injected over the sensor chip in concentrations ranging from 0.1 nM to 300 nM at a flow rate of 10 μl/min for 180 seconds at 25° C. Concentrations were tested in duplicate. The RUs elicited by the compound injected into the ethanolamine control flow cell was set as reference response and subtracted from the RUs elicited by the same compound injected to the Aβ saturated flow cell. The relationships between each RU obtained at the steady state of binding (plateau of the binding curve) and each concentration of the compound were plotted. After the analyte injection was stopped, HBS-EP buffer was flowed over the chip for 180 s to allow the bound analyte to dissociate from the immobilized Aβ and the dissociation curves were obtained. After the dissociation phase, regeneration solution (1M NaCl, 50 mM NaOH) was injected and flowed over the chip for 30 seconds to remove the residual bound analytes from the immobilized Aβ. BIACORE X100 control software Ver 1.1 was used to record the binding curves and BIACORE X100 evaluation software Ver 1.1 to analyze the curves (plot each RU at the steady state vs. concentration of analyte, fit the plot, determine KD values). The dissociation equilibrium constant KD of the analyte to the immobilized Aβ was determined from the steady-state levels estimating the maximum RU Rmax and calculating the KD as the concentration of the compound that elicited one-half of the Rmax.
(In general: SPR reads the build-up and loss of mass on a sensor chip optically.)

The target of series [7] is T2, Aβ1-42 (Homo sapiens, UniProt P05067).
T2 construct: β-amyloid polypeptides (Aβ 1-42, >98% pure); purchased Bachem (Bubendorf, Switzerland); host or cells: chemical synthesis
The series can be described thus: Aβ1-42 globulomer generation / oligomer formation (Hillen protocol), gel staining and western blot. In kind it is biochemical. The method, then:
Aβ1-42 intermediates and globulomers were produced according to Barghorn et al. [J. Neurochem. 2005 November; 95(3):834-47]. Synthetic lyophilized β-amyloid polypeptides (Aβ 1-42, >98% pure) were purchased from Bachem (Bubendorf, Switzerland). To avoid pre-aggregation, synthetic lyophilized Aβ1-42 was pretreated with HFIP. Aβ1-42 was dissolved in 100% HFIP, sonicated for 20 seconds and incubated for 2 hours at 37° C. under shaking at 100 RPM. After evaporation in a speedVac, Aβ1-42 was re-suspended in DMSO, with or without the tested peptide, to 5 mM and diluted with 20 mM NaH2PO4, 140 mM NaCl, pH 7.4, to a final concentration of 400 μM, and 1/10 volume 2% SDS (final concentration of 0.2%). The Aβ globulomers were generated by further dilution with two volumes of H2O and incubation for 18 hours or more.
To evaluate the effect of D-Trp-Aib analogs on the transformation of the Aβ1-42 into the toxic assemblies, the tested peptides were incubated with Aβ1-42 at increasing molar ratios, and the reaction mixtures were resolved on SDS-PAGE followed by western blot analysis by a specific anti Aβ antibody (6E10) (SIGNET).
In general terms: In western blotting, separated proteins are transferred to a membrane and probed.

Converted amounts (≈) assume the structure as drawn. Non-standard residues stand in square brackets, D forms with d. Residues, ends and D or L forms follow the SMILES beside them. ξ: configuration not given here. *: point of attachment. dNMeW = CN[C@H](Cc1c[nH]c2ccccc12)C(=O)O; ξNMeW = CNC(Cc1c[nH]c2ccccc12)C(=O)O; ξW = NC(Cc1c[nH]c2ccccc12)C(=O)O; NMeAib = CNC(C)(C)C(=O)O; Boc = CC(C)(C)OC(=O)*; Aib = CC(C)(N)C(=O)O; OtBu = CC(C)(C)O*

As usually defined, the solubility is the concentration that dissolves in the medium under given conditions. A low value points to little dissolved substance.

T1 sequence (P05067 672-713 limits assumed): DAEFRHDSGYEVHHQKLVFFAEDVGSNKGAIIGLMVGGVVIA
T2 sequence (P05067 672-713 limits assumed): as above

In turn, `CC(C)(NC(=O)C(Cc1c[nH]c2ccccc12)NC=O)C(=O)O` (stereo not drawn) displayed a solubility in series [1] of 222 µM (≈ 70.5 µg/mL). Besides, the efflux ratio in series [2] was 0.7. Moreover, in series [3], the Papp A→B is 1.3 ×10⁻⁶ cm/s. Moreover, the “Metabolic Stability (%) HLM” value in series [4] worked out at 87%. Further, the “Metabolic Stability (%) RLM” value in series [5] is more than 100%.
As for `CC(=O)N[C@H](Cc1c[nH]c2ccccc12)C(=O)N(C)C(C)(C)C(=O)O` [Compound R] (Ac-[dW]-[NMeAib]-OH), in series [6], the IC50 was found to be 4.3 ± 1 nM.
On to `CC(=O)N(C)[C@H](Cc1c[nH]c2ccccc12)C(=O)NC(C)(C)C(=O)O` [Compound B] (Ac-[dNMeW]-[Aib]-OH), for which, in series [6], the IC50 worked out at 56.4 ± 32.7 nM.
As for `CC(C)(C)OC(=O)C(C)(C)NC(=O)[C@H](N)Cc1c[nH]c2ccccc12` [Compound 1] (H-[dW]-[Aib]-OtBu), the “inhibition of Aβ1-42 globulomer formation” value in series [7] (10:1 (inhibitor:Aβ peptide) molar ratio) and in series [7] (20:1 (inhibitor:Aβ peptide) molar ratio) was “inhibit” in each case.
For the molecule `CC(=O)N[C@H](Cc1c[nH]c2ccccc12)C(=O)NC(C)(C)C(=O)O` [Compound A], the IC50 in series [6] was determined as 2.8 ± 0.8 nM.
As to `CC(C)(C)OC(=O)N/C(=C\c1c[nH]c2ccccc12)C(=O)NC(C)(C)C(N)=O` [Compound T], the IC50 in series [6] turned out to be 1.5 ± 0.6 nM.
Take `CC(C)(NC(=O)[C@@H](Cc1c[nH]c2ccccc12)NC=O)C(=O)O` [Compound C]: the IC50 in series [6] stood at 3.9 ± 0.1 nM.
Turning to `CN(C(=O)[C@@H](Cc1c[nH]c2ccccc12)NC(=O)OC(C)(C)C)C(C)(C)C(=O)O` [drawing 65] (Boc-[dW]-[NMeAib]-OH), the concentration in solution in series [1] (solubility) came to 239 µM (≈ 96.4 µg/mL). In addition, the efflux ratio in series [2] turned out to be 0.3. Moreover, in series [3], the Papp A→B came to 1.4 ×10⁻⁶ cm/s. Also, the “Metabolic Stability (%) HLM” value in series [4] worked out at 100%. The “Metabolic Stability (%) RLM” value in series [5] amounted to 87%.
In series [1], `CC(C)(C)OC(=O)N/C(=C\c1c[nH]c2ccccc12)C(=O)NC(C)(C)C(N)=O` [drawing 64] yielded a solubility of more than 282 µM. The efflux ratio in series [2] came out at 1.6. For the same molecule, in series [3], the Papp A→B came out at 10.6 ×10⁻⁶ cm/s.
With `CC(C)(NC(=O)C(N)Cc1c[nH]c2ccccc12)C(=O)O` (stereo not drawn) [reference compound], the solubility in series [1] was more than 350 µM. Besides, the Papp A→B in series [3] was 1.2 ×10⁻⁶ cm/s. In series [4], the “Metabolic Stability (%) HLM” value is more than 100%. The “Metabolic Stability (%) RLM” value in series [5] was more than 100%.
For the molecule `CNC(=O)C(C)(C)N(C)C(=O)[C@@H](Cc1c[nH]c2ccccc12)NC(C)=O` [Compound V] (Ac-[dW]-[NMeAib]-NHMe), the IC50 in series [6] was found to be 0.5 nM.
Take `CC(=O)N(C)C(Cc1c[nH]c2ccccc12)C(=O)NC(C)(C)C(=O)O` (stereo not drawn) (Ac-[ξNMeW]-[Aib]-OH): in series [1], the solubility is more than 278 µM. Moreover, the efflux ratio in series [2] was 0.8. Moreover, the Papp A→B in series [3] was determined as 1.3 ×10⁻⁶ cm/s.
Take `CN(C(=O)[C@@H](Cc1c[nH]c2ccccc12)NC(=O)OC(C)(C)C)C(C)(C)C(=O)O` [Compound Q] (Boc-[dW]-[NMeAib]-OH): the IC50 in series [6] is 3.8 ± 1.4 nM.
Still for that read-out and setting: next, `CN(C)C(=O)C(C)(C)NC(=O)[C@H](N)Cc1c[nH]c2ccccc12` [Compound F] (H-[dW]-[Aib]-NMe2): 4.2 nM.
Take `CC(=O)N[C@H](Cc1c[nH]c2ccccc12)C(=O)N(C)C(C)(C)C(=O)O` [drawing 66] (Ac-[dW]-[NMeAib]-OH): the solubility in series [1] is more than 286 µM. Besides, the efflux ratio in series [2] is 1. The Papp A→B in series [3] is 0.7 ×10⁻⁶ cm/s. The “Metabolic Stability (%) HLM” value in series [4] worked out at 88%. Besides, the “Metabolic Stability (%) RLM” value in series [5] is more than 100%.
Take `CC(C)(C)OC(=O)N/C(=C\c1c[nH]c2ccccc12)C(=O)NC(C)(C)C(=O)O` [Compound U]: in series [6], the IC50 came out at 6.2 ± 1.9 nM.
As for `CNC(=O)C(C)(C)NC(=O)[C@H](N)Cc1c[nH]c2ccccc12` [Compound E] (H-[dW]-[Aib]-NHMe), the IC50 in series [6] worked out at 40.2 ± 3.4 nM.
In series [1], `CC(=O)NC(Cc1c[nH]c2ccccc12)C(=O)NC(C)(C)C(=O)O` (stereo not drawn) registered a solubility of 253 µM (≈ 83.8 µg/mL). In addition, the efflux ratio in series [2] is 0.7. In addition, the Papp A→B in series [3] turned out to be 1.5 ×10⁻⁶ cm/s. For the same molecule, in series [4], the “Metabolic Stability (%) HLM” value is listed as 90%. Besides, the “Metabolic Stability (%) RLM” value in series [5] is recorded as more than 100%.
The matching figures for `CC(C)(C)OC(=O)N/C(=C\c1c[nH]c2ccccc12)C(=O)NC(C)(C)C(=O)O` [drawing 63]: more than 280 µM, 1.2, 2.1 ×10⁻⁶ cm/s, 95% and 81%.
Regarding `CC(C)(NC(=O)C(N)Cc1c[nH]c2ccccc12)C(N)=O` (stereo not drawn) (H-[ξW]-[Aib]-NH2), the solubility in series [1] is more than 355 µM. In addition, in series [3], the Papp A→B turned out to be 1.6 ×10⁻⁶ cm/s. In series [4], the “Metabolic Stability (%) HLM” value was more than 100%. In addition, in series [5], the “Metabolic Stability (%) RLM” value was more than 100%.

The record behind these values is US9630989B2, “Dipeptide analogs for treating conditions associated with amyloid fibril formation” (Ramot at Tel-Aviv University Ltd., priority 2010, dated 2017).
